Laboratory results reported in patent US20250011368A1, “DLL3 TARGETING PEPTIDES AND CONSTRUCTS THEREOF” (MARIANA ONCOLOGY INC., priority 2023, published 2025).
Numbered stars: 1 amine (or outer) side, 2 acyl side, 3 side chain; on linkers, the order of the positions; unused ones are H or OH. Bridge positions count the residues as written; N and C are the ends. Square brackets hold non-standard residues; d marks the D form. Peptide text beside a SMILES is read from it. * marks the point of attachment. Ala(piperidin-4-yl) = O=C([C@H](CC1CCN([*:3])CC1)N[*:1])[*:2]; DOTA = O=C(O)CN1CCN(CC(=O)O)CCN(CC(=O)*)CCN(CC(=O)O)CC1; 2Nal = N[C@@H](Cc1ccc2ccccc2c1)C(=O)O; tBuAla = CC(C)(C)C[C@H](N)C(=O)O; Chg = N[C@H](C(=O)O)C1CCCCC1; Tle = CC(C)(C)[C@H](N)C(=O)O

target: T1, human DLL3 (Homo sapiens, UniProt Q9NYJ7); test: Affinity determination by Surface Plasmon Resonance (SPR); assay type: binding; details: 25° C., biotinylated human DLL3 immobilized on streptavidin sensor chip, 1:1 binding model; read-out: SPR KD
T1 sequence (Q9NYJ7 27-618): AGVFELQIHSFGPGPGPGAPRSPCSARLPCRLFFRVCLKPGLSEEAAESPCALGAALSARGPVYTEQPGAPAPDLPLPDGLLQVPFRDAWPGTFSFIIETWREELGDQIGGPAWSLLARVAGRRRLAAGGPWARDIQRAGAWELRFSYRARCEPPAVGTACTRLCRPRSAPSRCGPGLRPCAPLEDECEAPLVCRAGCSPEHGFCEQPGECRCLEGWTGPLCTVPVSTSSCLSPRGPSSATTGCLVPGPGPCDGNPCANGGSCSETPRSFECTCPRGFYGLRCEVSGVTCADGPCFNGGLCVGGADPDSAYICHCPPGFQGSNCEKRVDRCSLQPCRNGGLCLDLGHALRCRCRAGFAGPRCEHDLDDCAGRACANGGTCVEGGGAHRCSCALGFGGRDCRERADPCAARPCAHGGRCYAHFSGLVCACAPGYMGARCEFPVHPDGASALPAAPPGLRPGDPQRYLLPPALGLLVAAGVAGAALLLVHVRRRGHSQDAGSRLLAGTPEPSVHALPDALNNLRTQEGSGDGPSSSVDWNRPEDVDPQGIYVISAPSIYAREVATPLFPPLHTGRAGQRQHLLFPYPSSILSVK
Outline: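 Kinetic and affinity constants were derived by fitting sensorgrams to a 1:1 binding model. Graded compound concentrations flowed at 100 μL/minute in 20 mM phosphate running buffer with 2% DMSO over streptavidin-immobilized biotinylated human DLL3, reference-subtracted.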

SMILES | Kd
CC[C@H](C)[C@H](NC(=O)[C@@H](NC(=O)[C@H](Cc1c[nH]c2ccccc12)NC(C)=O)[C@@H](C)O)C(=O)N[C@H]1CSSC[C@@H](C(=O)N[C@@H](Cc2c[nH]c3ccccc23)C(=O)N2CCC[C@H]2C(=O)N[C@H](CCCCNC(=O)CN2CCN(CC(=O)O)CCN(CC(=O)O)CCN(CC(=O)O)CC2)C(N)=O)NC(=O)[C@H](CC(=O)O)NC(=O)[C@H](Cc2cnc[nH]2)NC(=O)[C@H](Cc2c[nH]c3ccccc23)NC(=O)[C@H](CCC(=O)O)NC(=O)[C@H](CC(N)=O)NC1=O [compound 279, Ac-W-T-I-C(3)-N-Glu-W-H-D-C(3)-W-P-[D-Lys(DOTA)]-NH2] (Ac-WTICNEWHDCWP[dK](DOTA)-NH2; disulfide 4-10) | 1 to 10 nM
CC(=O)N[C@@H](Cc1c[nH]c2ccccc12)C(=O)N[C@H](C(=O)N[C@H](C(=O)N[C@H]1CSSC[C@@H](C(=O)N[C@@H](Cc2c[nH]c3ccccc23)C(=O)N2CCC[C@H]2C(=O)N[C@H](CCCCNC(=O)CN2CCN(CC(=O)O)CCN(CC(=O)O)CCN(CC(=O)O)CC2)C(N)=O)NC(=O)[C@H](CC(N)=O)NC(=O)[C@H](Cc2cnc[nH]2)NC(=O)[C@H](Cc2ccc3ccccc3c2)NC(=O)[C@H](CC(N)=O)NC(=O)[C@H](CC2CCNCC2)NC1=O)C1CCCCC1)[C@@H](C)O [compound 283, Ac-W-T-(Chg)-C(3)-[3-(4-piperidinyl)-Ala]-N-(2Nal)-H-(Asn)-C(3)-W-P-[D-Lys(DOTA)]-NH2] (Ac-WT[Chg]C[Ala(piperidin-4-yl)]N[2Nal]HNCWP[dK](DOTA)-NH2; disulfide 4-10) | < 1 nM
CC(=O)N[C@@H](Cc1c[nH]c2ccccc12)C(=O)N[C@H](C(=O)N[C@H](C(=O)N[C@H]1CSSC[C@@H](C(=O)N[C@@H](Cc2c[nH]c3ccccc23)C(=O)N2CCC[C@H]2C(=O)N[C@H](CCCCNC(=O)CN2CCN(CC(=O)O)CCN(CC(=O)O)CCN(CC(=O)O)CC2)C(N)=O)NC(=O)[C@H](C)NC(=O)[C@H](Cc2cnc[nH]2)NC(=O)[C@H](Cc2ccc3ccccc3c2)NC(=O)[C@H](CC(N)=O)NC(=O)[C@H](CC2CCNCC2)NC1=O)C1CCCCC1)[C@@H](C)O [compound 284, Ac-W-T-(Chg)-C(3)-[3-(4-piperidinyl)-Ala]-N-(2Nal)-H-(Ala)-C(3)-W-P-[D-Lys(DOTA)]-NH2] (Ac-WT[Chg]C[Ala(piperidin-4-yl)]N[2Nal]HACWP[dK](DOTA)-NH2; disulfide 4-10) | < 1 nM

Further lines, results first:

Kd | SMILES
< 1 nM | CC(=O)N[C@@H](Cc1c[nH]c2ccccc12)C(=O)N[C@H](C(=O)N[C@H](C(=O)N[C@H]1CSSC[C@@H](C(=O)N[C@@H](Cc2c[nH]c3ccccc23)C(=O)N2CCC[C@H]2C(=O)N[C@H](CCCCNC(=O)CN2CCN(CC(=O)O)CCN(CC(=O)O)CCN(CC(=O)O)CC2)C(N)=O)NC(=O)[C@H](CC(=O)O)NC(=O)[C@H](Cc2cnc[nH]2)NC(=O)[C@H](Cc2ccc3ccccc3c2)NC(=O)[C@H](CC(N)=O)NC(=O)[C@H](CC2CCNCC2)NC1=O)C(C)(C)C)[C@@H](C)O [compound 281, Ac-W-T-(Tbg)-C(3)-[3-(4-piperidinyl)-Ala]-N-(2Nal)-H-D-C(3)-W-P-[D-Lys(DOTA)]-NH2] (Ac-WT[Tle]C[Ala(piperidin-4-yl)]N[2Nal]HDCWP[dK](DOTA)-NH2; disulfide 4-10)
< 1 nM | CC(=O)N[C@@H](Cc1c[nH]c2ccccc12)C(=O)N[C@H](C(=O)N[C@@H](CC(C)(C)C)C(=O)N[C@H]1CSSC[C@@H](C(=O)N[C@@H](Cc2c[nH]c3ccccc23)C(=O)N2CCC[C@H]2C(=O)N[C@H](CCCCNC(=O)CN2CCN(CC(=O)O)CCN(CC(=O)O)CCN(CC(=O)O)CC2)C(N)=O)NC(=O)[C@H](CC(=O)O)NC(=O)[C@H](Cc2cnc[nH]2)NC(=O)[C@H](Cc2ccc3ccccc3c2)NC(=O)[C@H](CC(N)=O)NC(=O)[C@H](CC2CCNCC2)NC1=O)[C@@H](C)O [compound 282, Ac-W-T-(t-Bu-Ala)-C(3)-[3-(4-piperidinyl)-Ala]-N-(2Nal)-H-D-C(3)-W-P-[D-Lys(DOTA)]-NH2] (Ac-WT[tBuAla]C[Ala(piperidin-4-yl)]N[2Nal]HDCWP[dK](DOTA)-NH2; disulfide 4-10)
